Tests used:
[1] = biological target: GCN2 kinase (Homo sapiens (Human), UniProt Q9P2K8); assay: GCN2 Enzyme Inhibition Assay (Transcreener ADP2 fluorescence polarization); assay type: biochemical; details: 280 μM ATP, 200 μM (RS)7 peptide, 4 nM GCN2, 25° C.; for Ki: Ki(app)
Method in brief: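 Transcreener ADP2 fluorescence polarization detection of ADP from 4 nM GCN2 with (RS)7 substrate in 25 mM Tris-HCl pH 7.5, 50 mM NaCl, 10 mM MgCl2, 1 mM DTT. Compound pre-incubated with enzyme 10 min at 25 °C; reaction started by ATP, run 1 h at 25 °C. IC50 and Ki(app) by tight-binding fit.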

[2] = biological target: intracellular GCN2 (phosphorylation of the GCN2 substrate eIF2α) (Homo sapiens (Human), UniProt Q9P2K8); assay: GCN2 Cellular Inhibition Assay (AlphaScreen SureFire P-eIF2α Ser51, borrelidin-treated U2OS cells); assay type: cell-based; details: 10 μM borrelidin, 1 h, phosphorylated eIF2α Ser51, read-out: GCN2 Biomarker (IC50)
Chain of intracellular GCN2 (phosphorylation of the GCN2 substrate eIF2α) (Q9P2K8 whole entry): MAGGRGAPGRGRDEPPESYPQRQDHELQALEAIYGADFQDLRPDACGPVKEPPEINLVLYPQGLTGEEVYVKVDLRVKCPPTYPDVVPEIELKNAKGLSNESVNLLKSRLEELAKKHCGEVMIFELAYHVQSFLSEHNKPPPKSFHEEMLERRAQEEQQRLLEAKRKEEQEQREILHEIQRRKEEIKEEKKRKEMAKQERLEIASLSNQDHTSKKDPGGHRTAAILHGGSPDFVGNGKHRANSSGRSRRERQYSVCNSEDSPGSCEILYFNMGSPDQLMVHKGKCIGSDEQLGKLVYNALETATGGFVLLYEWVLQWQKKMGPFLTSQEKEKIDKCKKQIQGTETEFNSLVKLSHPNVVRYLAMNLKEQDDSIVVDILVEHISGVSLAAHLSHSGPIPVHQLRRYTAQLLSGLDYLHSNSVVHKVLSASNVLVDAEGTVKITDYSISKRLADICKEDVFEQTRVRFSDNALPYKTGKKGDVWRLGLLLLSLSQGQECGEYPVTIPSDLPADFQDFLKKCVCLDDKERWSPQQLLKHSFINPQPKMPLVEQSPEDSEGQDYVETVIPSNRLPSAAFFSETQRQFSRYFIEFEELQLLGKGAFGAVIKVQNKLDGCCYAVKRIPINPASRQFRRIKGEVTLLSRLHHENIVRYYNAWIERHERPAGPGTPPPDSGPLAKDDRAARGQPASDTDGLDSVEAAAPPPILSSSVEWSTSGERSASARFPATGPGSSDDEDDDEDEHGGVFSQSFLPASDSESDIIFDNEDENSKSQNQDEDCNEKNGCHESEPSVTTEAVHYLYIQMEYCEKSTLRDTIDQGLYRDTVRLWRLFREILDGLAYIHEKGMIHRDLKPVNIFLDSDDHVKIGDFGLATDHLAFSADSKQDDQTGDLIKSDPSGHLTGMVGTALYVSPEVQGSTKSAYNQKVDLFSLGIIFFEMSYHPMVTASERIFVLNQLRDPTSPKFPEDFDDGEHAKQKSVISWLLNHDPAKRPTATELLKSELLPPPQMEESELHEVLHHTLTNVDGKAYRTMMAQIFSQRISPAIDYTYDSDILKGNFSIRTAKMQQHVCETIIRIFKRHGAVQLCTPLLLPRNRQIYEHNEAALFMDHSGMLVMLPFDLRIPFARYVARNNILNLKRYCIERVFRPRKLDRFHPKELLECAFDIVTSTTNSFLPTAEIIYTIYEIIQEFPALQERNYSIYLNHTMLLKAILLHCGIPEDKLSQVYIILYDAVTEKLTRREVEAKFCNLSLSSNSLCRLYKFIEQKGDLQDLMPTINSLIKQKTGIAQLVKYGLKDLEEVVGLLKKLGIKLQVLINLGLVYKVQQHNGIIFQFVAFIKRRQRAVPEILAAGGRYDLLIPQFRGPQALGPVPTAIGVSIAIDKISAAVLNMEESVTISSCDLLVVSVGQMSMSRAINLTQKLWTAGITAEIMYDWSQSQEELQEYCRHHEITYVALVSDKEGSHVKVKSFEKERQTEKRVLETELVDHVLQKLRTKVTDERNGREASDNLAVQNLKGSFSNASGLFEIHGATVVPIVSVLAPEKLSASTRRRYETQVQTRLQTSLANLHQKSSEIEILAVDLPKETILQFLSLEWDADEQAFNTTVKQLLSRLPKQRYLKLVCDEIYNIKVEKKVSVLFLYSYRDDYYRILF
Method in brief: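 U2OS cells adhered overnight, then given compound (top 40 μM, 4-fold serial dilutions) plus 10 μM borrelidin for 1 h at 37 °C. Lysates assayed for eIF2α phospho-Ser51 by AlphaScreen SureFire; % inhibition versus borrelidin-only wells.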

Chain of GCN2 kinase (Q9P2K8 whole entry): as above

| SMILES | Ki [1] [µM] | IC50 [2] [µM] | IC50 [1] [µM] |
| --- | --- | --- | --- |
| O=C(Nc1ccncc1)[C@H]1CCCN(c2ccnc(-c3cnc4cc(F)c(Cl)cn34)n2)C1 [I-86, (S)-1-[2-(6-Chloro-7-fluoro-imidazo[1,2-a]pyridine-3-yl)-pyrimidin-4-yl]-piperidine-3-carboxylic acid pyridine-4-ylamide] | 0.01 to 0.1 | 0.5 to 5 |  |
| Clc1ccc2ncc(-c3nccc(N4CC5CC5(c5ccccc5)C4)n3)n2c1 (stereo not shown) [I-84, 6-Chloro-3-[4-(1-phenyl-3-aza-bicyclo[3.1.0]hex-3-yl)-pyrimidin-2-yl]-imidazo[1,2-a]pyridine] | 0.1 to 1 | > 5 |  |
| COCC1(CN2CCN(c3ccnc(-c4cnc5ccc(C(F)(F)F)cn45)n3)[C@@H](C)[C@@H]2c2cn[nH]c2)CCC1 [I-512, 4-[(2S,3 S)-4-{[1-(methoxymethyl)cyclobutyl]methyl}-2-methyl-3-(1H-pyrazol-4-yl)piperazin-1-yl]-2-[6-(trifluoromethyl)imidazo[1,2-a]pyridin-3-yl]pyrimidine] |  | 0.5 to 5 | 0.1 to 1 |
| CS(=O)(=O)NCC1CCN(c2ccnc(-c3cnc4cc(F)c(Br)cn34)n2)C1 (stereo not shown) [I-25, N-[[1-[2-(6-Bromo-7-fluoro-imidazo[1,2-a]pyridin-3-yl)pyrimidin-4-yl]pyrrolidin-3-yl]methyl]methanesulfonamide] | < 0.01 | 0.5 to 5 |  |
| FC(F)(F)c1ccc2ncc(-c3ccnc(N4CCN(C5CC5)[C@H](c5cn[nH]c5)C4)n3)n2c1 [I-508, 3-{2-[(R)-4-Cyclopropyl-3-(1H-pyrazol-4-yl)-piperazin-1-yl]-pyrimidin-4-yl}-6-trifluoromethyl-imidazo[1,2-a]pyridine] |  | < 0.5 | < 0.01 |
| NC(=O)C1CN(c2ccnc(-c3cnc4ccc(C(F)(F)F)cn34)n2)CCN1 (stereo not shown) [I-217, 4-(2-(6-(trifluoromethyl)imidazo[1,2-a]pyridin-3-yl)pyrimidin-4-yl)piperazine-2-carboxamide] |  | 0.5 to 5 | 0.01 to 0.1 |
| FC(F)(F)CCN1CCN(c2ccnc(-c3cnc4ccc(C(F)(F)F)cn34)n2)CC1c1cn[nH]c1 (stereo not shown) [I-449, 3-(4-(3-(1H-pyrazol-4-yl)-4-(3,3,3-trifluoropropyl)piperazin-1-yl)pyrimidin-2-yl)-6-(trifluoromethyl)imidazo[1,2-a]pyridine] |  | < 0.5 | < 0.01 |
| CS(=O)(=O)NC[C@@H]1CN(c2nc(-c3cnc4ccc(C(F)F)cn34)ns2)CCO1 [I-107, (S)—N-((4-(3-(6-(difluoromethyl)imidazo[1,2-a]pyridin-3-yl)-1,2,4-thiadiazol-5-yl)morpholin-2-yl)methyl)methanesulfonamide] | < 0.01 | < 0.5 |  |
| CS(=O)(=O)NC[C@@H]1CN(c2ccnc(-c3cnc4ccc(Cl)cn34)n2)CCO1 [I-19, N-[[(2S)-4-[2-(6-Chloroimidazo[1,2-a]pyridin-3-yl)pyrimidin-4-yl]morpholin-2-yl]methyl]methanesulfonamide] | 0.01 to 0.1 | 0.5 to 5 |  |
| Cc1noc([C@@H]2CN(c3ccnc(-c4cnc5ccc(Cl)cn45)n3)C[C@H](C)O2)n1 [I-62] | 0.01 to 0.1 | 0.5 to 5 |  |
| CC1(C)CN(c2ccnc(-c3cnc4ccc(C(F)(F)F)cn34)n2)CCN1C(=O)C1CCC(=O)CC1 [I-492, 4-(2,2-dimethyl-4-(2-(6-(trifluoromethyl)imidazo[1,2-a]pyridin-3-yl)pyrimidin-4-yl)piperazine-1-carbonyl)cyclohexan-1-one] |  | 0.5 to 5 | 0.01 to 0.1 |
| CS(=N)(=O)C[C@H]1CCCN(c2ccnc(-c3cnc4ccc(C(F)(F)F)cn34)n2)C1 (stereo partly shown) [I-4, 3-(4-(3-((S-Methylsulfonimidoyl)methyl)piperidin-1-yl)pyrimidin-2-yl)-6-(trifluoromethyl)imidazo[1,2-a]pyridine] | 0.01 to 0.1 | 0.5 to 5 |  |
| C[C@@H]1[C@H](CNS(C)(=O)=O)N(C2CC2)CCN1c1nccc(-c2cnc3ccc(C(F)(F)F)cn23)n1 [I-543, N-{(2S,3R)-1-Cyclopropyl-3-methyl-4-[4-(6-trifluoromethyl-imidazo[1,2-a]pyridin-3-yl)-pyrimidin-2-yl]-piperazin-2-ylmethyl}-methanesulfonamide] |  | < 0.5 | < 0.01 |
| O=C(c1cnoc1)N1CCN(c2ccnc(-c3cnc4ccc(C(F)(F)F)cn34)n2)CC1c1cn[nH]c1 (stereo not shown) [I-444, (2-(1H-pyrazol-4-yl)-4-(2-(6-(trifluoromethyl)imidazo[1,2-a]pyridin-3-yl)pyrimidin-4-yl)piperazin-1-yl)(isoxazol-4-yl)methanone] |  | 0.5 to 5 | 0.01 to 0.1 |
| NC(=O)[C@@H]1CN(c2ccnc(-c3cnc4ccc(C(F)(F)F)cn34)n2)CCN1C1CC1 [I-324, (S)-1-cyclopropyl-4-(2-(6-(trifluoromethyl)imidazzo[1,2-a]pyridin-3-yl)pyrimidin-4-yl)piperazine-2-carboxamide] |  | > 5 | 0.1 to 1 |
| NC(=O)[C@@H]1CN(c2ccnc(-c3cnc4ccc(C(F)(F)F)cn34)n2)CCO1 [I-150, (S)-4-(2-(6-(trifluoromethyl)imidazo[1,2-a]pyridin-3-yl)pyrimidin-4-yl)morpholine-2-carboxamide] |  | < 0.5 | 0.01 to 0.1 |
| Cc1n[nH]nc1[C@H]1C[C@@H](C)CN(c2ccnc(-c3cnc4ccc(C(F)(F)F)cn34)n2)C1 [I-408, 3-(4-((3R,5S)-3-methyl-5-(5-methyl-2H-1,2,3-triazol-4-yl)piperidin-1-yl)pyrimidin-2-yl)-6-(trifluoromethyl)imidazo[1,2-a]pyridine] |  | 0.5 to 5 | 0.01 to 0.1 |
| CC1CN(c2ccnc(-c3cnc4ccc(Cl)cn34)n2)CC(c2cn[nH]c2)N1 (stereo not shown) [I-266, 6-chloro-3-(4-(3-methyl-5-(1H-pyrazol-4-yl)piperazin-1-yl)pyrimidin-2-yl)imidazo[1,2-a]pyridine] |  | < 0.5 | < 0.01 |
| O=C(C1CC1)N1CCN(c2ccnc(-c3cnc4ccc(C(F)(F)F)cn34)n2)CC1c1cn[nH]c1 (stereo not shown) [I-397, (2-(1H-pyrazol-4-yl)-4-(2-(6-(trifluoromethyl)imidazo[1,2-a]pyridin-3-yl)pyrimidin-4-yl)piperazin-1-yl)(cyclopropyl)methanone] |  | 0.5 to 5 | 0.01 to 0.1 |
| Cc1[nH]ncc1C1CC(F)CN(c2ccnc(-c3cnc4cc(F)c(Cl)cn34)n2)C1 (stereo not shown) [I-426, 6-chloro-7-fluoro-3-(4-(3-fluoro-5-(5-methyl-1H-pyrazol-4-yl)piperidin-1-yl)pyrimidin-2-yl)imidazo[1,2-a]pyridine] |  | 0.5 to 5 | 0.01 to 0.1 |
| CS(=O)(=O)N1CC2(CCCN(c3ccnc(-c4cnc5ccc(C(F)(F)F)cn45)n3)C2)C1 [I-448, 2-(methylsulfonyl)-6-(2-(6-(trifluoromethyl)imidazo[1,2-a]pyridin-3-yl)pyrimidin-4-yl)-2,6-diazaspiro[3.5]nonane] |  | 0.5 to 5 | 0.01 to 0.1 |
| N#Cc1ccc2ncc(-c3nccc(N4CCOC(c5cn[nH]c5C(F)F)C4)n3)n2c1 (stereo not shown) [I-193, 3-(4-(2-(5-(difluoromethyl)-1H-pyrazol-4-yl)morpholino)pyrimidin-2-yl)imidazo[1,2-a]pyridine-6-carbonitrile] |  | < 0.5 | < 0.01 |
| FC(F)c1ccc2ncc(-c3ccnc(N4CCOC(c5cn[nH]c5)C4)n3)n2c1 (stereo not shown) [I-18, 4-[4-[6-(Difluoromethyl)imidazo[1,2-a]pyridin-3-yl]pyrimidin-2-yl]-2-(1H-pyrazol-4-yl)morpholine] | < 0.01 | < 0.5 |  |

— US10793563B2, “GCN2 inhibitors and uses thereof” (Merck Patent GmbH, priority 2018, dated 2020)
